In general, Km refers to the concentration of substrate that gives half-maximal velocity.

Drawing on PMC12250605, “Recombinant Expression and Characterization of a Novel Type I Baeyer–Villiger Monooxygenase from a Streptomyces Strain Isolated from the Rhizosphere of the Atacama Desert Lupinus oreophilus” (International Journal of Molecular Sciences, 2025), this text covers Km for two molecules.

For this experiment, the system named is T1, MO-G35A.
T1 construct: full-length, C-terminal His6 tag kept, codon-optimised gene; pET-28a (cytoplasmic) or pET-22b (pelB, periplasmic), E. coli NiCo21(DE3) or Shuffle T7; 73 kDa
Briefly: NADPH consumption at […] nm, sigmoidal fit. It is filed as biochemical, Streptomyces sp. G35A. The following applies: Tris-HCl pH 7.5, 30 °C (methods) or 35 °C (results), allosteric sigmoidal fit.

In the case of `O=C1CC2C=CCC12` (centres unmarked) [BHC, bicyclo [3.2.0] hept-2-en-6-one], the Km (200 µM NADPH) is 60 µM.
Turning to `NC(=O)C1=CN([C@@H]2O[C@H](COP(=O)(O)OP(=O)(O)OC[C@H]3O[C@@H](n4cnc5c(N)ncnc54)[C@H](OP(=O)(O)O)[C@@H]3O)[C@@H](O)[C@H]2O)C=CC1` [NADPH], under “5 mM BHC”, the Km is 23.8 µM.
